Measured values from patent US11111245B2, “Derivatives of N-cycloalkyl/heterocycloalkyl-4-(imidazo[1,2-a]pyridine)pyrimidin-2-amine as therapeutic agents” (Aucentra Therapeutics Pty Ltd, priority 2017, dated 2021).

Experiments:
CDK9/T1 = CDK9/T1 (Homo sapiens, UniProt P50750); experiment: ADP Glo Kinase assay CDK9/T1; type: biochemical; details: CDK9T1; read-out: CDK inhibition, Ki (μM) CDK9T1
Outline: (§1)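 ADP Glo luminescence, in-house: CDK4/D1, CDK6/D3 on RB-CTF substrate (Tris pH 7.5, MgCl2, DTT, BSA); CDK9/T1 on RBER-IRStide. Reaction 40 min, 37° C after ATP addition. 10-point 1:3 series, 10 μM to 0.5 nM. IC50 by 4-parameter logistic; Ki derived using ATP Km.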

CDK6/D3 = CDK6/D3 (Homo sapiens, UniProt Q00534); experiment: ADP Glo Kinase assay CDK6/D3; type: biochemical; details: CDK6D3; compound at 10 μM; read-out: residual activity (%) at 10 μM CDK6D3
Sequence of CDK6/D3 (Q00534 whole entry): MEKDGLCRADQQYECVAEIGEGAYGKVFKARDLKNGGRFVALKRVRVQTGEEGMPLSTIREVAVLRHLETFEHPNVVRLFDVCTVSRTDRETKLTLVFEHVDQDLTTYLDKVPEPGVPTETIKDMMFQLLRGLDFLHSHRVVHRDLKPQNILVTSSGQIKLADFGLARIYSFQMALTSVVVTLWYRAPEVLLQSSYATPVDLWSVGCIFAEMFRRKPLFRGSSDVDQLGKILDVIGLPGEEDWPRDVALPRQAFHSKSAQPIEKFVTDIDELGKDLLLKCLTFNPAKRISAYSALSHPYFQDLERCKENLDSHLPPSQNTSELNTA
Sequence of CDK6/D3 (P30281 whole entry partner): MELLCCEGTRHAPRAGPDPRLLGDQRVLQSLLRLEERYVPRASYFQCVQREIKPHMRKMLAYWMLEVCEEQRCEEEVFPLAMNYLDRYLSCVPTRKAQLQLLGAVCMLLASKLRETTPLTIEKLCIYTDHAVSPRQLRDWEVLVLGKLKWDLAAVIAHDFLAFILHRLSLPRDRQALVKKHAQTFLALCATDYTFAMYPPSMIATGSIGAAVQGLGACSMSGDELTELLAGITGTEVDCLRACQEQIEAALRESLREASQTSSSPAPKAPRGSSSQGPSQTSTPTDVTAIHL
Outline: as §1

leukemia cell lines = experiment: Resazurin cell viability assay on leukemia cell lines (72 h growth inhibition, GI50); type: cell-based; details: Homo sapiens, MV4-11 cells
Outline: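 Cells were exposed to compound, then viability was read by MTT (solid tumour lines) or resazurin reduction (leukaemia lines). Non-linear regression gave the concentration inhibiting 50% of cell growth.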

CDK4/D1 = CDK4/D1 (Homo sapiens, UniProt P11802); experiment: ADP Glo Kinase assay CDK4/D1; type: biochemical; details: CDK4D1; for remaining activity at 10 µM: compound at 10 μM, read-out: residual activity (%) at 10 μM CDK4D1
Sequence of CDK4/D1 (P11802 whole entry): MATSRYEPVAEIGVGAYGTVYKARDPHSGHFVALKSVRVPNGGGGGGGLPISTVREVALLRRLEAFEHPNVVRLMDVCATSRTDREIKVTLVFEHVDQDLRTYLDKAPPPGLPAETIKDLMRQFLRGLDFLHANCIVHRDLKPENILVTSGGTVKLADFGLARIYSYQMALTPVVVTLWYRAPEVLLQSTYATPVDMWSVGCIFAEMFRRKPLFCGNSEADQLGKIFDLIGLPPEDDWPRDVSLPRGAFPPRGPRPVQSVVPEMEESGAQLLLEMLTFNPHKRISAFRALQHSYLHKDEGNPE
Sequence of CDK4/D1 (P24385 whole entry partner): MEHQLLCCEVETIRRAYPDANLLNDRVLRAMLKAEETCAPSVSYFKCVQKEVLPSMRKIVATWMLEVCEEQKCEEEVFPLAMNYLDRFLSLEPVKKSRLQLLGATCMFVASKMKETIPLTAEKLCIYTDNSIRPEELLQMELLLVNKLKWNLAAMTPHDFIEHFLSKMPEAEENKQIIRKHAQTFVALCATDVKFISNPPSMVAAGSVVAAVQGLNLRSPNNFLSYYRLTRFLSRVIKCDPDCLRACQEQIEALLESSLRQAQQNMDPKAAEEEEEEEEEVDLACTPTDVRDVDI
Outline: as §1

CDKs and other kinases [1] = molecular target: T1, CDKs and other kinases (Homo sapiens, UniProt P50613); experiment: Radiometric kinase assay (Eurofins Pharma Discovery or Reaction Biology Corporation Kinase Profiler); type: biochemical; details: CDK7H; for remaining activity at 10 µM: compound at 10 μM, read-out: residual activity (%) at 10 μM CDK7H; for Ki: read-out: CDK inhibition, Ki (μM) CDK7H
T1 construct: other: CDK7H; residual activity (%) at 10 μM CDK7H; compound at 10 μM
T1 sequence (P50613 whole entry): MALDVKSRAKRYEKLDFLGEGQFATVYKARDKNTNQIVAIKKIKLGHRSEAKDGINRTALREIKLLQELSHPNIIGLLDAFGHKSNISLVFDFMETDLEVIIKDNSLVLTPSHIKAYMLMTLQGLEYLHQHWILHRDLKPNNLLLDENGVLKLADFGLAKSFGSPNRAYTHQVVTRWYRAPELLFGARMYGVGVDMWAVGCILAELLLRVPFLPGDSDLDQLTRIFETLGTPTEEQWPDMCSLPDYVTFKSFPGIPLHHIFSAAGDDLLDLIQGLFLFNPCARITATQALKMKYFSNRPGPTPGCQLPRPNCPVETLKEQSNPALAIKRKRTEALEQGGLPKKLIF
Outline: (§2)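 Other CDKs and further kinases were profiled externally by radiometric assay. In-house ADP Glo assays covered CDK4/D1 and CDK6/D3 (RB-CTF substrate, pH 7.5 Tris buffer with MgCl2, DTT, BSA) and CDK9/T1 (RBER-IRStide substrate), 40 min at 37° C.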

CDKs and other kinases [2] = molecular target: T2, CDKs and other kinases (Homo sapiens, UniProt P24941); experiment: as above; type: biochemical; details: CDK2A; for remaining activity at 10 µM: compound at 10 μM, read-out: residual activity (%) at 10 μM CDK2A; for Ki: read-out: CDK inhibition, Ki (μM) CDK2A
T2 construct: other: CDK2A; residual activity (%) at 10 μM CDK2A; compound at 10 μM
Outline: as §2

CDKs and other kinases [3] = molecular target: T3, CDKs and other kinases (Homo sapiens, UniProt P06493); experiment: as above; type: biochemical; details: CDK1B; for remaining activity at 10 µM: compound at 10 μM, read-out: residual activity (%) at 10 μM CDK1B; for Ki: read-out: CDK inhibition, Ki (μM) CDK1B
T3 construct: other: CDK1B; residual activity (%) at 10 μM CDK1B; compound at 10 μM
T3 sequence (P06493 whole entry): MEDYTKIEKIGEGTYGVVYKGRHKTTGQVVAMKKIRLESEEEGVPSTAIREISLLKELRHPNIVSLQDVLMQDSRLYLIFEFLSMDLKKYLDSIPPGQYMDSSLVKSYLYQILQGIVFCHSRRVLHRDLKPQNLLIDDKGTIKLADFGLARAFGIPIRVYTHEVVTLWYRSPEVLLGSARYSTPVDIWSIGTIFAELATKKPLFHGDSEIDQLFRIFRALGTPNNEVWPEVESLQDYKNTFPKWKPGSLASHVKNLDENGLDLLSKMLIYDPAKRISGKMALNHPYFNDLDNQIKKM
Outline: as §2

Sequence of CDK9/T1 (P50750 whole entry): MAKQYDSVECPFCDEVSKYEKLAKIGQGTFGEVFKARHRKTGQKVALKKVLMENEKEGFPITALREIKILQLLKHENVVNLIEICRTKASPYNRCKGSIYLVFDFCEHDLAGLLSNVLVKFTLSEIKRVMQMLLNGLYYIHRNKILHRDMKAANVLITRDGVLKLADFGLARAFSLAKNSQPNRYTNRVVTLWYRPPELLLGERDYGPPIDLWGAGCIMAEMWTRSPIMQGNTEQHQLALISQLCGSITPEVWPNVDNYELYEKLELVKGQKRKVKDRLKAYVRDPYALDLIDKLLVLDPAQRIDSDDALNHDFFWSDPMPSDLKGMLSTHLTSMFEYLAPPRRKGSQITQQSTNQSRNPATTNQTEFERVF
Sequence of CDK9/T1 (O60563 whole entry partner): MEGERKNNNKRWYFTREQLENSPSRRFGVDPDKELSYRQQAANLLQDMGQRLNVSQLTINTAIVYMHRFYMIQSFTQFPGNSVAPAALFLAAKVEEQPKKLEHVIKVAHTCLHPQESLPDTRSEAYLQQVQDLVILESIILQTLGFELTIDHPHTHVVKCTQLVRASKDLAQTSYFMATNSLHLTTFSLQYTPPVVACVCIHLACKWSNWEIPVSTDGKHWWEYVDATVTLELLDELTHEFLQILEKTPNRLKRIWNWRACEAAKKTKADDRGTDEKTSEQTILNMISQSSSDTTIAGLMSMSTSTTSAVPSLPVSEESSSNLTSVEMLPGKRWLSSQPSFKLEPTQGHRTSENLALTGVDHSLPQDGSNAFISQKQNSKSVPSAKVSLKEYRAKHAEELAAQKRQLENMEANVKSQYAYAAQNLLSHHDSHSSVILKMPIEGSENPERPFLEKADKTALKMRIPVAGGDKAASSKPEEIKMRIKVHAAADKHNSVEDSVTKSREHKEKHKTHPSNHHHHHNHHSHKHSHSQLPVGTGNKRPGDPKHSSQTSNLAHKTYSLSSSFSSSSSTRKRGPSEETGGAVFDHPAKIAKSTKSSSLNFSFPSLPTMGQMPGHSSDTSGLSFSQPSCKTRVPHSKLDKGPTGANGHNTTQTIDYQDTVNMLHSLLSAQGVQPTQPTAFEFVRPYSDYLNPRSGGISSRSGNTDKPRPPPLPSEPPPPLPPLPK

| Compound | Ki (CDK9/T1) [µM] | remaining activity at 10 µM (CDK6/D3) [%] | GI50 (leukemia cell lines) [µM] | remaining activity at 10 µM (CDK4/D1) [%] | remaining activity at 10 µM (CDKs and other kinases [1]) [%] | remaining activity at 10 µM (CDKs and other kinases [2]) [%] | remaining activity at 10 µM (CDKs and other kinases [3]) [%] | Ki (CDKs and other kinases [1]) [µM] | Ki (CDKs and other kinases [2]) [µM] | Ki (CDKs and other kinases [3]) [µM] | Ki (CDK4/D1; read-out: CDK inhibition, Ki (μM) CDK4D1) [µM] |
| --- | --- | --- | --- | --- | --- | --- | --- | --- | --- | --- | --- |
| Cc1cnc(NC2CCCC(N)C2)nc1-c1cnc2ccc(Nc3cncnc3)cn12 (stereo not drawn) [Compound 96, N^1-(5-Methyl-4-(6-(pyrimidin-5-ylamino)imidazo[1,2-a]pyridin-3-yl)pyrimidin-2-yl)cyclohexane-1,3-diamine] | 0.193 | 90 | > 10 | 49 | 63 | 37 | 63 | – | – | – | – |
| N[C@H]1CC[C@H](Nc2ncc(Cl)c(-c3cnc4ccc(NCc5ccc(F)cc5)cn34)n2)CC1 [Compound 41, (1r,4r)-N^1-(5-Chloro-4-(6-((4-fluorobenzyl)amino)imidazo[1,2-a]pyridin-3-yl)pyrimidin-2-yl)cyclohexane-1,4-diamine] | 0.045 | 55 | 0.013 ± 0.002 | 40 | – | – | – | 0.958 | 0.059 | 2.66 | – |
| Cc1ccc(Nc2ccc3ncc(-c4nc(N[C@H]5CC[C@H](N)CC5)ncc4C)n3c2)cn1 [Compound 69, (1r,4r)-N^1-(5-Methyl-4-(6-((6-methylpyridin-3-yl)amino)imidazo[1,2-a]pyridin-3-yl)pyrimidin-2-yl)cyclohexane-1,4-diamine] | 0.023 | 25 | 0.199 ± 0.02 | 24 | – | – | – | 0.95 | 0.61 | 2.95 | – |
| Cc1cnc(NC2CCC(NCC(F)(F)F)CC2)nc1-c1cnc2ccc(Nc3cncnc3)cn12 (stereo not drawn) [Compound 112, N^1-(5-Methyl-4-(6-(pyrimidin-5-ylamino)imidazo[1,2-a]pyridin-3-yl)pyrimidin-2-yl)-N^4-(2,2,2-trifluoroethyl) cyclohexane-1,4-diamine] | 0.205 | 45 | 2.55 ± 1.7 | – | – | – | – | > 5 | 0.49 | 1.73 | > 5 |

These reach a lower Ki (CDK9/T1). Values come first.

| Ki (CDK9/T1) [µM] | remaining activity at 10 µM (CDK6/D3) [%] | GI50 (leukemia cell lines) [µM] | remaining activity at 10 µM (CDK4/D1) [%] | remaining activity at 10 µM (CDKs and other kinases [1]) [%] | remaining activity at 10 µM (CDKs and other kinases [2]) [%] | remaining activity at 10 µM (CDKs and other kinases [3]) [%] | Ki (CDKs and other kinases [1]) [µM] | Ki (CDKs and other kinases [2]) [µM] | Ki (CDKs and other kinases [3]) [µM] | Ki (CDK4/D1; read-out: CDK inhibition, Ki (μM) CDK4D1) [µM] | Compound |
| --- | --- | --- | --- | --- | --- | --- | --- | --- | --- | --- | --- |
| 0.02 | 46 | 0.349 ± 0.086 | 41 | 50 | 11 | 39 | – | – | – | – | Cc1cnc(N[C@H]2CC[C@H](N)CC2)nc1-c1cnc2ccc(Oc3cccnc3)cn12 [Compound 74, (1r,4r)-N^1-(5-Methyl-4-(6-(pyridin-3-yloxy)imidazo[1,2-a]pyridin-3-yl)pyrimidin-2-yl)cyclohexane-1,4-diamine] |
| 0.016 | 48 | 0.004 ± 0.001 | 4 | – | – | – | 0.094 | 0.016 | 0.065 | – | N[C@H]1CC[C@H](Nc2ncc(Cl)c(-c3cnc4ccc(-c5ccncc5)cn34)n2)CC1 [Compound 36, (1r,4r)-N^1-(5-Chloro-4-(6-(pyridin-4-yl)imidazo[1,2-a]pyridin-3-yl)pyrimidin-2-yl)cyclohexane-1,4-diamine] |
| 0.014 | 72 | 0.005 ± 0.001 | 30 | – | – | – | 0.038 | 0.73 | 0.88 | – | N[C@H]1CC[C@H](Nc2ncc(Cl)c(-c3cnc4ccc(-c5ncccc5F)cn34)n2)CC1 [Compound 40, (1r,4r)-N^1-(5-Chloro-4-(6-(3-fluoropyridin-2-yl)imidazo [1,2-a]pyridin-3-yl)pyrimidin-2-yl)cyclohexane-1,4-diamine] |
| 0.006 | 46 | < 0.001 | 0 | – | – | – | 0.019 | 0.023 | 0.084 | – | N[C@H]1CC[C@H](Nc2ncc(F)c(-c3cnc4ccc(C(F)(F)F)cn34)n2)CC1 [Compound 3, (1r,4r)-N^1-(5-Fluoro-4-(6-(trifluoromethyl)imidazo[1,2-a]pyridin-3-yl)pyrimidin-2-yl)cyclohexane-1,4-diamine] |
| 0.004 | 45 | 0.002 | 4 | 8 | 3 | 13 | – | – | – | – | CN(C)S(=O)(=O)c1ccc(-c2ccc3ncc(-c4nc(N[C@H]5CC[C@H](N)CC5)ncc4F)n3c2)cc1 [Compound 48, 4-(3-(2-(((1r,4r)-4-Aminocyclohexyl)amino)-5-fluoropyrimidin-4-yl)imidazo[1,2-a]pyridin-6-yl)-N,N-dimethylbenzenesulfonamide] |
